Here are results for 25 compounds from patent publication US11634396B2 (priority 2021, dated 2023).

Read-outs that look alike come from different tables or passages of the source.

In one test the target is human mOR (Homo sapiens (Human), UniProt P35372). In words: cell-based.
The next test addresses kOR (OPRK1) (Homo sapiens (Human), UniProt P41145). In words: KOR β-Arrestin antagonist assay (Tango OPRK1-bla U2OS cells). The format is cell-based. An excerpt:
KOR β-Arrestin Agonist and Antagonist assays were preformed using the Tango™ OPRK1-bla U2OS cells from Invitrogen and purchased from ThermoFisher, catalog number K1576.

The next test deals with human dOR (Homo sapiens (Human), UniProt P41143). Briefly: cell-based.
[1] abbreviates: CHO Tag-lite human mOR stable cell line, forskolin 4 μM and DAMGO at EC90, read-out: mOR cAMP Antagonist Assay IC50.
The mark [2] stands for this setting: dOR cAMP Agonist Assay EC50, CHO Tag-lite human dOR stable cell line, forskolin.

Sequence of human mOR (P35372 whole entry): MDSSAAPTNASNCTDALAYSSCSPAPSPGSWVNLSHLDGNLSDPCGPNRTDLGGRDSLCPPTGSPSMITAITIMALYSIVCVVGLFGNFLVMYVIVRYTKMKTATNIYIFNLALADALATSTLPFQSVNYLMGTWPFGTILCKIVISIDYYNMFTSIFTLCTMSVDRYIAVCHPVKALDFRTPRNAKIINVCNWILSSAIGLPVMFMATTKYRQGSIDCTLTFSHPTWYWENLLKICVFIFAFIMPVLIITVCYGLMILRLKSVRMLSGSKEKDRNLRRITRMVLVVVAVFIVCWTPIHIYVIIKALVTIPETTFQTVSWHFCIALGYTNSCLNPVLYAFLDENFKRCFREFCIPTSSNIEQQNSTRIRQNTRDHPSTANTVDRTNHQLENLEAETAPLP
Sequence of human dOR (P41143 whole entry): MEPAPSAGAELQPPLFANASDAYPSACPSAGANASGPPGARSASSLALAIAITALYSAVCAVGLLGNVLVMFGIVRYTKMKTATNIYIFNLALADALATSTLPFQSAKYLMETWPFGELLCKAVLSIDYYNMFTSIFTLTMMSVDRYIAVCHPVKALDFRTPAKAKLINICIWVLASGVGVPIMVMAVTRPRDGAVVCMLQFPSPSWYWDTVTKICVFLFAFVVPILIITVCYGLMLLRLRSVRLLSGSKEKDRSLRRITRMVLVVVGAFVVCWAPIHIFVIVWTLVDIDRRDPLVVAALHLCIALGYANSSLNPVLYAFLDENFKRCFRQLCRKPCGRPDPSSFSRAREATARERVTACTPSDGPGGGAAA
Sequence of kOR (OPRK1) (P41145 whole entry): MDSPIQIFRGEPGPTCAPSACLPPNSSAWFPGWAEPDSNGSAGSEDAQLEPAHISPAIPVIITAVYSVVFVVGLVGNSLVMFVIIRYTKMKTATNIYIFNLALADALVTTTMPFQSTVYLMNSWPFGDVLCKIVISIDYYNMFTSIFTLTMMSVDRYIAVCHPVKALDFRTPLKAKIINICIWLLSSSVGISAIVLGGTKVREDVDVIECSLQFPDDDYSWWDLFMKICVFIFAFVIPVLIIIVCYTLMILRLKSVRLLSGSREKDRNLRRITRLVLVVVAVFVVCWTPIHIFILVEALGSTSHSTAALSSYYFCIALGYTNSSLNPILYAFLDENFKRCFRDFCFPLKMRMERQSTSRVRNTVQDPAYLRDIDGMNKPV

What is called IC50 is the concentration needed to halve the response being measured. In the case of `Cc1cc(C(N)=O)cc(C)c1C[C@@H](CNC(=O)C1CC1c1ncccn1)N(C)C` (stereo partly drawn) [Compound 6, 4-((2S)-2-(dimethylamino)-3-(2-(pyrimidin-2-yl)cyclopropane-1-carboxamido)propyl)-3,5-dimethylbenzamide], the IC50 on human mOR (setting [1]) and on kOR (OPRK1) was 300 to 3000 nM throughout. Take `Cc1ccc([C@H](CC(=O)NC[C@H](Cc2ccc(C(N)=O)c(F)c2Cl)N(C)C)C2(C(F)(F)F)CC2)cn1` [Compound 17, 3-chloro-4-[(2S)-2-(dimethylamino)-3-[(3S)-3-(6-methylpyridin-3-yl)-3-[1-(trifluoromethyl)cyclopropyl]propanamido]propyl]-2-fluorobenzamide]: the IC50 was more than 3000 nM on human mOR (setting [1]) and less than 300 nM at kOR (OPRK1). Take `CN(C)[C@H](CNC(=O)C[C@H](c1cccnc1)C1(C(F)(F)F)CC1)Cc1ccc(C(N)=O)c(F)c1Cl` [Compound 18, 3-chloro-4-[(2S)-2-(dimethylamino)-3-[(3R)-3-(pyridin-3-yl)-3-[1-(trifluoromethyl)cyclopropyl]propanamido]propyl]-2-fluorobenzamide]: the IC50 on human mOR is more than 3000 nM; at kOR (OPRK1) it was less than 300 nM. Take `CN(C)[C@H](CNC(=O)CC(c1ncc(Cl)cn1)C1(C(F)(F)F)CC1)Cc1ccc(C(N)=O)c(F)c1Cl` (stereo partly drawn) [Compound 22, 3-chloro-4-[(2S)-3-[3-(5-chloropyrimidin-2-yl)-3-[1-(trifluoromethyl)cyclopropyl]propanamido]-2-(dimethylamino)propyl]-2-fluorobenzamide]: the IC50 at human mOR (setting [1]) and against kOR (OPRK1) was less than 300 nM in each case. With `Cc1ncc([C@@H](CC(=O)NC[C@H](Cc2ccc(C(N)=O)cc2Cl)N(C)C)C2(C(F)(F)F)CC2)cn1` [Compound 24, 3-chloro-4-[(2S)-2-(dimethylamino)-3-[(3R)-3-(2-methylpyrimidin-5-yl)-3-[1-(trifluoromethyl)cyclopropyl]propanamido]propyl]benzamide], the IC50 on human mOR and against kOR (OPRK1) was less than 300 nM each time. Consider `Cc1ncc([C@@H](CC(=O)NC[C@H](Cc2ccc(C(N)=O)cc2Cl)N(C)C)C2CC2)cn1` [Compound 25, 3-chloro-4-[(2S)-3-[(3S)-3-cyclopropyl-3-(2-methylpyrimidin-5-yl)propanamido]-2-(dimethylamino)propyl]benzamide], for which the IC50 is less than 300 nM on human mOR and 300 to 3000 nM against kOR (OPRK1). The like results for `CN(C)[C@H](CNC(=O)C[C@H](c1cccnc1)C1(C(F)(F)F)CC1)Cc1ccc(C(N)=O)cc1Cl` [Compound 28, 3-chloro-4-((S)-2-(dimethylamino)-3-((R)-3-(pyridin-3-yl)-3-(1-(trifluoromethyl)cyclopropyl)propanamido)propyl)benzamide] were, in that order, less than 300 nM and less than 300 nM.

Regarding `CN(C)[C@H](CNC(=O)CC(c1ccc(C(F)(F)F)nc1)C1(C(F)(F)F)CC1)Cc1ccc(C(N)=O)cc1Cl` (stereo partly drawn) [Compound 32, 3-chloro-4-[(2S)-2-(dimethylamino)-3-{3-[1-(trifluoromethyl)cyclopropyl]-3-[6-(trifluoromethyl)pyridin-3-yl]propanamido}propyl]benzamide], the IC50 at human mOR (setting [1]) and at kOR (OPRK1) was less than 300 nM in each case. Turning to `COc1ncc(C(CC(=O)NC[C@H](Cc2ccc(C(N)=O)cc2Cl)N(C)C)C2(C(F)(F)F)CC2)cn1` (stereo partly drawn) [Compound 33, 3-chloro-4-[(2S)-2-(dimethylamino)-3-[3-(2-methoxypyrimidin-5-yl)-3-[1-(trifluoromethyl)hydropropyl]propanamido]propyl]benzamide], the IC50 at human mOR and on kOR (OPRK1) was less than 300 nM each time. Regarding `Cc1ncc(C(CC(=O)NC[C@H](Cc2ccc(C(N)=O)cc2Cl)N(C)C)C2(C(F)(F)F)CC2)cn1` (stereo partly drawn) [Compound 34, 3-chloro-4-[(2S)-2-(dimethylamino)-3-[3-(2-methylpyrimidin-5-yl)-3-[1-(trifluoromethyl)cyclopropyl]propanamido]propyl]benzamide], the IC50 at human mOR and against kOR (OPRK1) was less than 300 nM throughout. For the compound `COc1ccc(C(CC(=O)NC[C@H](Cc2ccc(C(N)=O)cc2Cl)N(C)C)C2(C(F)(F)F)CC2)cn1` (stereo partly drawn) [Compound 35, 3-chloro-4-[(2S)-2-(dimethylamino)-3-[3-(6-methoxypyridin-3-yl)-3-[1-(trifluoromethyl)cyclopropyl]propanamido]propyl]benzamide], the IC50 at human mOR and at kOR (OPRK1) was less than 300 nM throughout.

With `CN(C)[C@H](CNC(=O)CC(c1cncc(F)c1)C1(C(F)(F)F)CC1)Cc1ccc(C(N)=O)cc1Cl` (stereo partly drawn) [Compound 36, 3-chloro-4-[(2S)-2-(dimethylamino)-3-[3-(5-fluoropyridin-3-yl)-3-[1-(trifluoromethyl)cyclopropyl]propanamido]propyl]benzamide], the IC50 at human mOR (setting [1]) and against kOR (OPRK1) was less than 300 nM in each case.

As to `CN(C)[C@H](CNC(=O)CC(c1ccc(Cl)cn1)C1(C(F)(F)F)CC1)Cc1ccc(C(N)=O)cc1Cl` (stereo partly drawn) [Compound 37, 3-chloro-4-[(2S)-3-[3-(5-chloropyridin-2-yl)-3-[1-(trifluoromethyl)cyclopropyl]propanamido]-2-(dimethylamino)propyl]benzamide], the IC50 on human mOR and against kOR (OPRK1) was less than 300 nM each time. Regarding `CN(C)[C@H](CNC(=O)CC(c1cccnc1)C1(C(F)(F)F)CC1)Cc1ccc(C(N)=O)cc1Cl` (stereo partly drawn) [Compound 38, 3-chloro-4-[(2S)-2-(dimethylamino)-3-[3-(pyridin-3-yl)-3-[1-(trifluoromethyl)cyclopropyl]propanamido]propyl]benzamide], the IC50 on human mOR and at kOR (OPRK1) was less than 300 nM throughout. Regarding `CN(C)[C@H](CNC(=O)C[C@@H](c1cccnc1)C1(C(F)(F)F)CC1)Cc1ccc(C(N)=O)cc1Cl` [Compound 41, 3-chloro-4-((S)-2-(dimethylamino)-3-((S)-3-(pyridin-3-yl)-3-(1-(trifluoromethyl)cyclopropyl)propanamido)propyl)benzamide], the IC50 on human mOR and against kOR (OPRK1) was less than 300 nM throughout.

For `COc1ccc(C(CC(=O)NC[C@H](Cc2cc(F)c(C(N)=O)c(F)c2)N(C)C)C2(C(F)(F)F)CC2)cn1` (stereo partly drawn) [Compound 49, 4-[(2S)-2-(dimethylamino)-3-[3-(6-methoxypyridin-3-yl)-3-[1-(trifluoromethyl)cyclopropyl]propanamido]propyl]-2,6-difluorobenzamide], the IC50 at human mOR was more than 3000 nM; against kOR (OPRK1) it was less than 300 nM. Consider `Cc1ncc([C@@H](CC(=O)NC[C@H](Cc2ccc(C(N)=O)c(F)c2)N2CCCC2)C2(C(F)(F)F)CC2)cn1` [Compound 65, 2-fluoro-4-((S)-3-((R)-3-(2-methylpyrimidin-5-yl)-3-(1-(trifluoromethyl)cyclopropyl)propanamido)-2-(pyrrolidin-1-yl)propyl)benzamide], for which the IC50 was more than 3000 nM at human mOR and 300 to 3000 nM on kOR (OPRK1). In the same order, the values of `CN(C)[C@H](CNC(=O)C[C@@H](CC1CC1)c1cccnc1)Cc1ccc(C(N)=O)c(F)c1` [Compound 66, 4-((S)-3-((R)-4-cyclopropyl-3-(pyridin-3-yl)butanamido)-2-(dimethylamino)propyl)-2-fluorobenzamide] are less than 300 nM and less than 300 nM.

On to `CN(C)[C@H](CNC(=O)CC(c1cncnc1)C1(C(F)(F)F)CC1)Cc1ccc(C(N)=O)c(F)c1` (stereo partly drawn) [Compound 72, 4-[(2S)-2-(dimethylamino)-3-[3-(pyrimidin-5-yl)-3-[1-(trifluoromethyl)cyclopropyl]propanamido]propyl]-2-fluorobenzamide], for which the IC50 at human mOR (setting [1]) and on kOR (OPRK1) was less than 300 nM in each case.

On to `CNC(=O)c1ccc(C[C@@H](CNC(=O)C[C@@H](c2ccc(Cl)cn2)C2(C(F)(F)F)CC2)N(C)C)c(C)c1` [Compound 137, 4-((S)-3-((R)-3-(5-chloropyridin-2-yl)-3-(1-(trifluoromethyl)cyclopropyl)propanamido)-2-(dimethylamino)propyl)-N,3-dimethylbenzamide], for which, at kOR (OPRK1), the IC50 is less than 300 nM. On to `CNC(=O)c1ccc(C[C@@H](CNC(=O)C[C@H](c2ccc(Cl)cn2)C2(C(F)(F)F)CC2)N(C)C)c(C)c1` [Compound 138, 4-((S)-3-((S)-3-(5-chloropyridin-2-yl)-3-(1-(trifluoromethyl)cyclopropyl)propanamido)-2-(dimethylamino)propyl)-N,3-dimethylbenzamide], for which the IC50 against kOR (OPRK1) is less than 300 nM. For orientation: EC50 means the concentration needed to bring the measured effect to its halfway point. Take `CN(C)[C@H](CNC(=O)C[C@H](c1ccccc1)C1CC1)Cc1ccc(O)cc1Cl` [Compound 263, (S)-N-((S)-3-(2-chloro-4-hydroxyphenyl)-2-(dimethylamino)propyl)-3-cyclopropyl-3-phenylpropanamide]: the EC50 on human dOR (setting [2]) was less than 300 nM. The IC50 at human mOR is less than 300 nM. Regarding `CC(=O)Oc1ccc(C[C@@H](CNC(=O)C[C@H](C)c2ccccc2)N(C)C)cc1Cl` [Compound 275, 2-chloro-4-((S)-2-(dimethylamino)-3-((S)-3-phenylbutanamido)propyl)phenyl acetate], the EC50 on human dOR (setting [2]) is less than 300 nM. Besides, at human mOR, the IC50 was less than 300 nM. Consider `CN1Cc2cc(O)ccc2C[C@H]1CNC(=O)C[C@H](c1ccccc1)C(C)(C)C` [Compound 323, (S)-N-(((S)-7-hydroxy-2-methyl-1,2,3,4-tetrahydroisoquinolin-3-yl)methyl)-4,4-dimethyl-3-phenylpentanamide], for which, on human dOR (setting [2]), the EC50 was less than 300 nM. Moreover, the IC50 at human mOR is less than 300 nM. In the case of `CC(C)C[C@H](CC(=O)NC[C@H](Cc1ccc(-c2cn[nH]c2)cc1Cl)N(C)C)c1ccccc1` [Compound 326, (3R)-N-[(2S)-3-[2-chloro-4-(1H-pyrazol-4-yl)phenyl]-2-(dimethylamino)propyl]-5-methyl-3-phenylhexanamide], the EC50 at human dOR (read-out: dOR cAMP Agonist Assay EC50) is more than 3000 nM. Besides, at human mOR (read-out: mOR cAMP Antagonist Assay IC50), the IC50 fell in the range of 300 to 3000 nM.
